Where two headings read alike, the source gives them in different places.
Columns and labels:
[1] = target: T1, MBP (Escherichia coli, UniProt P0AEX9)
Description: TMB (3,3′,5,5′ tetramethylbenzidine) is a chromogen that yields a blue color when oxidized with hydrogen peroxide (catalyzed by HRP) with major absorbances at 370 nm and 652 nm. Adding sulfuric or phosphoric acid to stop the reaction changes the product to yellow that absorbs at 450 nm and provides greater sensitivity than the blue product.
For any test samples outside of such a range, dilution with a buffered solution is carried out.

[2] = target: Maltose binding protein (Escherichia coli, UniProt P0AEX9); conditions: cited from earlier work
[3] = target: T1, MBP; experiment: inhibition of amylose-MBP binding by maltose (ELISA); set-up: 6xHis (C); made in house; host or cells: E. coli BL-21 (DE3); species or system E. coli

amylose
Absorbance at 450 nm ([1]; Na2CO3 buffer pH 8.3, listed as level 0.0001 (unit not given)): 0.215 | Absorbance at 450 nm ([1]; Na2CO3 buffer pH 8.3, listed as level 0.0002 (unit not given)): 0.181 | Absorbance at 450 nm ([1]; Na2CO3 buffer pH 8.3, listed as level 0.0005 (unit not given)): 0.233 | Absorbance at 450 nm ([1]; Na2CO3 buffer pH 8.3, listed as level 0.001 (unit not given)): 0.216 | Absorbance at 450 nm ([1]; Na2CO3 buffer pH 8.3, listed as level 0.01 (unit not given)): 0.440 | Absorbance at 450 nm ([1]; Na2CO3 buffer pH 8.3, listed as level 0.1 (unit not given)): 0.870 | Absorbance at 450 nm ([1]; Na2CO3 buffer pH 8.3, listed as level 1 (unit not given)): 0.748 | Absorbance at 450 nm ([1]; Na2CO3 buffer pH 8.9, listed as level 0.0001 (unit not given)): 0.215 | Absorbance at 450 nm ([1]; Na2CO3 buffer pH 8.9, listed as level 0.0002 (unit not given)): 0.170 | Absorbance at 450 nm ([1]; Na2CO3 buffer pH 8.9, listed as level 0.0005 (unit not given)): 0.175 | Absorbance at 450 nm ([1]; Na2CO3 buffer pH 8.9, listed as level 0.001 (unit not given)): 0.248 | Absorbance at 450 nm ([1]; Na2CO3 buffer pH 8.9, listed as level 0.01 (unit not given)): 0.502 | Absorbance at 450 nm ([1]; Na2CO3 buffer pH 8.9, listed as level 0.1 (unit not given)): 0.847 | Absorbance at 450 nm ([1]; Na2CO3 buffer pH 8.9, listed as level 1 (unit not given)): 0.787 | Absorbance at 450 nm ([1]; Na2CO3 buffer pH 9.3, listed as level 0.0001 (unit not given)): 0.196 | Absorbance at 450 nm ([1]; Na2CO3 buffer pH 9.3, listed as level 0.0002 (unit not given)): 0.169 | Absorbance at 450 nm ([1]; Na2CO3 buffer pH 9.3, listed as level 0.0005 (unit not given)): 0.152 | Absorbance at 450 nm ([1]; Na2CO3 buffer pH 9.3, listed as level 0.001 (unit not given)): 0.179 | Absorbance at 450 nm ([1]; Na2CO3 buffer pH 9.3, listed as level 0.01 (unit not given)): 0.438 | Absorbance at 450 nm ([1]; Na2CO3 buffer pH 9.3, listed as level 0.1 (unit not given)): 0.828 | Absorbance at 450 nm ([1]; Na2CO3 buffer pH 9.3, listed as level 1 (unit not given)): 0.788 | Absorbance at 450 nm ([1]; Na2CO3 buffer pH 9.9, listed as level 0.0001 (unit not given)): 0.235 | Absorbance at 450 nm ([1]; Na2CO3 buffer pH 9.9, listed as level 0.0002 (unit not given)): 0.182 | Absorbance at 450 nm ([1]; Na2CO3 buffer pH 9.9, listed as level 0.0005 (unit not given)): 0.192 | Absorbance at 450 nm ([1]; Na2CO3 buffer pH 9.9, listed as level 0.001 (unit not given)): 0.241 | Absorbance at 450 nm ([1]; Na2CO3 buffer pH 9.9, listed as level 0.01 (unit not given)): 0.452 | Absorbance at 450 nm ([1]; Na2CO3 buffer pH 9.9, listed as level 0.1 (unit not given)): 0.849 | Absorbance at 450 nm ([1]; Na2CO3 buffer pH 9.9, listed as level 1 (unit not given)): 0.868 | Absorbance at 450 nm ([1]; Na2CO3 buffer pH 10, listed as level 0.0001 (unit not given)): 0.237 | Absorbance at 450 nm ([1]; Na2CO3 buffer pH 10, listed as level 0.0002 (unit not given)): 0.224 | Absorbance at 450 nm ([1]; Na2CO3 buffer pH 10, listed as level 0.0005 (unit not given)): 0.183 | Absorbance at 450 nm ([1]; Na2CO3 buffer pH 10, listed as level 0.001 (unit not given)): 0.160 | Absorbance at 450 nm ([1]; Na2CO3 buffer pH 10, listed as level 0.01 (unit not given)): 0.432 | Absorbance at 450 nm ([1]; Na2CO3 buffer pH 10, listed as level 0.1 (unit not given)): 0.793 | Absorbance at 450 nm ([1]; Na2CO3 buffer pH 10, listed as level 1 (unit not given)): 0.918 | Absorbance at 450 nm ([1]; Na2CO3 buffer pH 11, listed as level 0.0001 (unit not given)): 0.185 | Absorbance at 450 nm ([1]; Na2CO3 buffer pH 11, listed as level 0.0002 (unit not given)): 0.183 | Absorbance at 450 nm ([1]; Na2CO3 buffer pH 11, listed as level 0.0005 (unit not given)): 0.215 | Absorbance at 450 nm ([1]; Na2CO3 buffer pH 11, listed as level 0.001 (unit not given)): 0.193 | Absorbance at 450 nm ([1]; Na2CO3 buffer pH 11, listed as level 0.01 (unit not given)): 0.512 | Absorbance at 450 nm ([1]; Na2CO3 buffer pH 11, listed as level 0.1 (unit not given)): 0.845 | Absorbance at 450 nm ([1]; Na2CO3 buffer pH 11, listed as level 1 (unit not given)): 0.908 | Absorbance at 450 nm ([1]; NaHCO3 buffer pH 5.7, listed as level 0.0001 (unit not given)): 0.297 | Absorbance at 450 nm ([1]; NaHCO3 buffer pH 5.7, listed as level 0.0002 (unit not given)): 0.264 | Absorbance at 450 nm ([1]; NaHCO3 buffer pH 5.7, listed as level 0.0005 (unit not given)): 0.314 | Absorbance at 450 nm ([1]; NaHCO3 buffer pH 5.7, listed as level 0.001 (unit not given)): 0.238 | Absorbance at 450 nm ([1]; NaHCO3 buffer pH 5.7, listed as level 0.01 (unit not given)): 0.465 | Absorbance at 450 nm ([1]; NaHCO3 buffer pH 5.7, listed as level 0.1 (unit not given)): 0.861 | Absorbance at 450 nm ([1]; NaHCO3 buffer pH 5.7, listed as level 1 (unit not given)): 0.815 | Absorbance at 450 nm ([1]; NaHCO3 buffer pH 6.3, listed as level 0.0001 (unit not given)): 0.243 | Absorbance at 450 nm ([1]; NaHCO3 buffer pH 6.3, listed as level 0.0002 (unit not given)): 0.192 | Absorbance at 450 nm ([1]; NaHCO3 buffer pH 6.3, listed as level 0.0005 (unit not given)): 0.271 | Absorbance at 450 nm ([1]; NaHCO3 buffer pH 6.3, listed as level 0.001 (unit not given)): 0.219 | Absorbance at 450 nm ([1]; NaHCO3 buffer pH 6.3, listed as level 0.01 (unit not given)): 0.392 | Absorbance at 450 nm ([1]; NaHCO3 buffer pH 6.3, listed as level 0.1 (unit not given)): 0.879 | Absorbance at 450 nm ([1]; NaHCO3 buffer pH 6.3, listed as level 1 (unit not given)): 0.826 | Absorbance at 450 nm ([1]; NaHCO3 buffer pH 6.9, listed as level 0.0001 (unit not given)): 0.199 | Absorbance at 450 nm ([1]; NaHCO3 buffer pH 6.9, listed as level 0.0002 (unit not given)): 0.154 | Absorbance at 450 nm ([1]; NaHCO3 buffer pH 6.9, listed as level 0.0005 (unit not given)): 0.234 | Absorbance at 450 nm ([1]; NaHCO3 buffer pH 6.9, listed as level 0.001 (unit not given)): 0.140 | Absorbance at 450 nm ([1]; NaHCO3 buffer pH 6.9, listed as level 0.01 (unit not given)): 0.397 | Absorbance at 450 nm ([1]; NaHCO3 buffer pH 6.9, listed as level 0.1 (unit not given)): 0.896 | Absorbance at 450 nm ([1]; NaHCO3 buffer pH 6.9, listed as level 1 (unit not given)): 0.853 | Absorbance at 450 nm ([1]; NaHCO3 buffer pH 7.1, listed as level 0.0001 (unit not given)): 0.217 | Absorbance at 450 nm ([1]; NaHCO3 buffer pH 7.1, listed as level 0.0002 (unit not given)): 0.195 | Absorbance at 450 nm ([1]; NaHCO3 buffer pH 7.1, listed as level 0.0005 (unit not given)): 0.200 | Absorbance at 450 nm ([1]; NaHCO3 buffer pH 7.1, listed as level 0.001 (unit not given)): 0.159 | Absorbance at 450 nm ([1]; NaHCO3 buffer pH 7.1, listed as level 0.01 (unit not given)): 0.366 | Absorbance at 450 nm ([1]; NaHCO3 buffer pH 7.1, listed as level 0.1 (unit not given)): 0.855 | Absorbance at 450 nm ([1]; NaHCO3 buffer pH 7.1, listed as level 1 (unit not given)): 0.849 | Absorbance at 450 nm ([1]; NaHCO3 buffer pH 7.7, listed as level 0.0001 (unit not given)): 0.242 | Absorbance at 450 nm ([1]; NaHCO3 buffer pH 7.7, listed as level 0.0002 (unit not given)): 0.208 | Absorbance at 450 nm ([1]; NaHCO3 buffer pH 7.7, listed as level 0.0005 (unit not given)): 0.187 | Absorbance at 450 nm ([1]; NaHCO3 buffer pH 7.7, listed as level 0.001 (unit not given)): 0.254 | Absorbance at 450 nm ([1]; NaHCO3 buffer pH 7.7, listed as level 0.01 (unit not given)): 0.387 | Absorbance at 450 nm ([1]; NaHCO3 buffer pH 7.7, listed as level 0.1 (unit not given)): 0.817 | Absorbance at 450 nm ([1]; NaHCO3 buffer pH 7.7, listed as level 1 (unit not given)): 0.809

OC[C@H]1O[C@H](O[C@H]2[C@H](O)[C@@H](O)[C@H](O)O[C@@H]2CO)[C@H](O)[C@@H](O)[C@@H]1O [maltose]
saturated at (level) ([2]; saturation of maltose binding protein, as ppb): about 400 ppb | saturated at (concentration) ([2]; saturation of maltose binding protein): about 10 μM | interference with binding of MBP with amylose ([3]; 50 μM maltose): 90% | inhibition at 5000 µM ([3]; read-out: inhibition of binding of MBP to amylose): 95%

maltotriose
Kd ([2]; Kd expressed as ppb): about 120 ppb

Source: US7972859B2, “Authentication of ingestible products using saccharides as markers” (Authentix, Inc., priority 2006, dated 2011)
